Laboratory results as given in patent US6653455B1, “Crystallization of doxorubicin hydrochloride” (Mercian Corporation, priority 1998, dated 2003).
Where a name gives a salt, the structure may show the parent alone.

Experiment: Average particle diameter, microscopic method (Heywood circle-corresponding diameter)
Format: physicochemical
Conditions: 10 typical crystals on photograph, hydrochloride
Text: The average particle diameter is shown by a diameter of a circle having the same area as an injected area of the particle, a so-called Heywood diameter (circle-corresponding diameter) according to a microscopic method (injected image). A small amount of the crystals was put on a slide glass, and 1 to 2 drops of a hydrophilic surfactant (sesquioleic acid sorbitan) were fallen thereon to disperse them. It was photographed by means of a polarization microscope (photographing lens: 3.3 magnifications, objective lens: 20 magnifications) equipped with a photographing device. Optional 10 pieces of the typical crystals were selected on the photograph to measure a long diameter and a short diameter thereof An (projected) area of the particle was shown by long diameter×short diameter, and the particle diameter was shown by a diameter of a circle having the same area as that obtained above.

| Average particle diameter | Compound |
| --- | --- |
| <4 μm | COc1cccc2c1C(=O)c1c(O)c3c(c(O)c1C2=O)C[C@@](O)(C(=O)CO)C[C@@H]3O[C@H]1C[C@H](N)[C@H](O)[C@H](C)O1 [Example 4, doxorubicin hydrochloride] |
| <4 μm | COc1cccc2c1C(=O)c1c(O)c3c(c(O)c1C2=O)C[C@@](O)(C(=O)CO)C[C@@H]3O[C@H]1C[C@H](N)[C@H](O)[C@H](C)O1 [Example 13, doxorubicin hydrochloride] |
| <4 μm | COc1cccc2c1C(=O)c1c(O)c3c(c(O)c1C2=O)C[C@@](O)(C(=O)CO)C[C@@H]3O[C@H]1C[C@H](N)[C@H](O)[C@H](C)O1 [Example 16, doxorubicin hydrochloride] |
| 17 μm | COc1cccc2c1C(=O)c1c(O)c3c(c(O)c1C2=O)C[C@@](O)(C(=O)CO)C[C@@H]3O[C@H]1C[C@H](N)[C@H](O)[C@H](C)O1 [Example 19, doxorubicin hydrochloride] |

Experiment: Hygroscopicity, cup method (weight change)
Format: physicochemical
Conditions: weight-increasing rate, 25° C., 50 to 60% RH, 15 minutes; crystals dried at 40° C. under vacuum; hydrochloride
Description: Determined by the following cup method. To be specific, about 15 to 20 mg of the sample was put in a cylindrical cup having a diameter of 6 mm and a depth of 6 mm and left standing at a fixed temperature (25° C.) and relative humidity (50 to 60% RH) for 15 minutes to measure a weight change, whereby the hygroscopicity was evaluated.
In the following respective examples, a weight-increasing rate of 0.40% or more is shown by an evaluation criterion that the hygroscopicity is large (−); a weight-increasing rate of 0.20% or more and less than 0.40% is shown by an evaluation criterion that the hygroscopicity is ;intermediate (±); and a weight-increasing rate of less than 0.20% is shown by an evaluation criterion that the hygroscopicity is small: (+).

| Compound | Hygroscopicity |
| --- | --- |
| COc1cccc2c1C(=O)c1c(O)c3c(c(O)c1C2=O)C[C@@](O)(C(=O)CO)C[C@@H]3O[C@H]1C[C@H](N)[C@H](O)[C@H](C)O1 [Example 1, doxorubicin hydrochloride] | − (a weight-increasing rate of 0.40% or more is shown by an evaluation criterion that the hygroscopicity is large (−)) |
| COc1cccc2c1C(=O)c1c(O)c3c(c(O)c1C2=O)C[C@@](O)(C(=O)CO)C[C@@H]3O[C@H]1C[C@H](N)[C@H](O)[C@H](C)O1 [Example 3, doxorubicin hydrochloride] | − (a weight-increasing rate of 0.40% or more is shown by an evaluation criterion that the hygroscopicity is large (−)) |
| COc1cccc2c1C(=O)c1c(O)c3c(c(O)c1C2=O)C[C@@](O)(C(=O)CO)C[C@@H]3O[C@H]1C[C@H](N)[C@H](O)[C@H](C)O1 [Example 4, doxorubicin hydrochloride] | − (a weight-increasing rate of 0.40% or more is shown by an evaluation criterion that the hygroscopicity is large (−)) |
| COc1cccc2c1C(=O)c1c(O)c3c(c(O)c1C2=O)C[C@@](O)(C(=O)CO)C[C@@H]3O[C@H]1C[C@H](N)[C@H](O)[C@H](C)O1 [Example 8, doxorubicin hydrochloride] | − (a weight-increasing rate of 0.40% or more is shown by an evaluation criterion that the hygroscopicity is large (−)) |
| COc1cccc2c1C(=O)c1c(O)c3c(c(O)c1C2=O)C[C@@](O)(C(=O)CO)C[C@@H]3O[C@H]1C[C@H](N)[C@H](O)[C@H](C)O1 [Example 9, doxorubicin hydrochloride] | − (a weight-increasing rate of 0.40% or more is shown by an evaluation criterion that the hygroscopicity is large (−)) |
| COc1cccc2c1C(=O)c1c(O)c3c(c(O)c1C2=O)C[C@@](O)(C(=O)CO)C[C@@H]3O[C@H]1C[C@H](N)[C@H](O)[C@H](C)O1 [Example 13, doxorubicin hydrochloride] | ± (a weight-increasing rate of 0.20% or more and less than 0.40% is shown by an evaluation criterion that the hygroscopicity is ;intermediate (±)) |
| COc1cccc2c1C(=O)c1c(O)c3c(c(O)c1C2=O)C[C@@](O)(C(=O)CO)C[C@@H]3O[C@H]1C[C@H](N)[C@H](O)[C@H](C)O1 [Example 14, doxorubicin hydrochloride] | ± (a weight-increasing rate of 0.20% or more and less than 0.40% is shown by an evaluation criterion that the hygroscopicity is ;intermediate (±)) |
| COc1cccc2c1C(=O)c1c(O)c3c(c(O)c1C2=O)C[C@@](O)(C(=O)CO)C[C@@H]3O[C@H]1C[C@H](N)[C@H](O)[C@H](C)O1 [Example 15, doxorubicin hydrochloride] | − (a weight-increasing rate of 0.40% or more is shown by an evaluation criterion that the hygroscopicity is large (−)) |
| COc1cccc2c1C(=O)c1c(O)c3c(c(O)c1C2=O)C[C@@](O)(C(=O)CO)C[C@@H]3O[C@H]1C[C@H](N)[C@H](O)[C@H](C)O1 [Example 16, doxorubicin hydrochloride] | ± (a weight-increasing rate of 0.20% or more and less than 0.40% is shown by an evaluation criterion that the hygroscopicity is ;intermediate (±)) |
| COc1cccc2c1C(=O)c1c(O)c3c(c(O)c1C2=O)C[C@@](O)(C(=O)CO)C[C@@H]3O[C@H]1C[C@H](N)[C@H](O)[C@H](C)O1 [Example 17, doxorubicin hydrochloride] | − (a weight-increasing rate of 0.40% or more is shown by an evaluation criterion that the hygroscopicity is large (−)) |
| COc1cccc2c1C(=O)c1c(O)c3c(c(O)c1C2=O)C[C@@](O)(C(=O)CO)C[C@@H]3O[C@H]1C[C@H](N)[C@H](O)[C@H](C)O1 [Example 18, doxorubicin hydrochloride] | − (a weight-increasing rate of 0.40% or more is shown by an evaluation criterion that the hygroscopicity is large (−)) |
| COc1cccc2c1C(=O)c1c(O)c3c(c(O)c1C2=O)C[C@@](O)(C(=O)CO)C[C@@H]3O[C@H]1C[C@H](N)[C@H](O)[C@H](C)O1 [Example 19, doxorubicin hydrochloride] | ± (a weight-increasing rate of 0.20% or more and less than 0.40% is shown by an evaluation criterion that the hygroscopicity is ;intermediate (±)) |
| COc1cccc2c1C(=O)c1c(O)c3c(c(O)c1C2=O)C[C@@](O)(C(=O)CO)C[C@@H]3O[C@H]1C[C@H](N)[C@H](O)[C@H](C)O1 [Example 25, doxorubicin hydrochloride] | + (a weight-increasing rate of less than 0.20% is shown by an evaluation criterion that the hygroscopicity is small: (+)) |
| COc1cccc2c1C(=O)c1c(O)c3c(c(O)c1C2=O)C[C@@](O)(C(=O)CO)C[C@@H]3O[C@H]1C[C@H](N)[C@H](O)[C@H](C)O1 [Example 26, doxorubicin hydrochloride] | + (a weight-increasing rate of less than 0.20% is shown by an evaluation criterion that the hygroscopicity is small: (+)) |
| COc1cccc2c1C(=O)c1c(O)c3c(c(O)c1C2=O)C[C@@](O)(C(=O)CO)C[C@@H]3O[C@H]1C[C@H](N)[C@H](O)[C@H](C)O1 [Example 27, doxorubicin hydrochloride] | ± (a weight-increasing rate of 0.20% or more and less than 0.40% is shown by an evaluation criterion that the hygroscopicity is ;intermediate (±)) |
| COc1cccc2c1C(=O)c1c(O)c3c(c(O)c1C2=O)C[C@@](O)(C(=O)CO)C[C@@H]3O[C@H]1C[C@H](N)[C@H](O)[C@H](C)O1 [Example 29, doxorubicin hydrochloride] | + (a weight-increasing rate of less than 0.20% is shown by an evaluation criterion that the hygroscopicity is small: (+)) |
| COc1cccc2c1C(=O)c1c(O)c3c(c(O)c1C2=O)C[C@@](O)(C(=O)CO)C[C@@H]3O[C@H]1C[C@H](N)[C@H](O)[C@H](C)O1 [Example 31, doxorubicin hydrochloride] | + (a weight-increasing rate of less than 0.20% is shown by an evaluation criterion that the hygroscopicity is small: (+)) |
| COc1cccc2c1C(=O)c1c(O)c3c(c(O)c1C2=O)C[C@@](O)(C(=O)CO)C[C@@H]3O[C@H]1C[C@H](N)[C@H](O)[C@H](C)O1 [Example 36, doxorubicin hydrochloride] | ± (a weight-increasing rate of 0.20% or more and less than 0.40% is shown by an evaluation criterion that the hygroscopicity is ;intermediate (±)) |
| COc1cccc2c1C(=O)c1c(O)c3c(c(O)c1C2=O)C[C@@](O)(C(=O)CO)C[C@@H]3O[C@H]1C[C@H](N)[C@H](O)[C@H](C)O1 [Example 37, doxorubicin hydrochloride] | + (a weight-increasing rate of less than 0.20% is shown by an evaluation criterion that the hygroscopicity is small: (+)) |
| COc1cccc2c1C(=O)c1c(O)c3c(c(O)c1C2=O)C[C@@](O)(C(=O)CO)C[C@@H]3O[C@H]1C[C@H](N)[C@H](O)[C@H](C)O1 [Example 39, doxorubicin hydrochloride] | + (a weight-increasing rate of less than 0.20% is shown by an evaluation criterion that the hygroscopicity is small: (+)) |
| COc1cccc2c1C(=O)c1c(O)c3c(c(O)c1C2=O)C[C@@](O)(C(=O)CO)C[C@@H]3O[C@H]1C[C@H](N)[C@H](O)[C@H](C)O1 [Example 41, doxorubicin hydrochloride] | + (a weight-increasing rate of less than 0.20% is shown by an evaluation criterion that the hygroscopicity is small: (+)) |
| COc1cccc2c1C(=O)c1c(O)c3c(c(O)c1C2=O)C[C@@](O)(C(=O)CO)C[C@@H]3O[C@H]1C[C@H](N)[C@H](O)[C@H](C)O1 [Example 43, doxorubicin hydrochloride] | + (a weight-increasing rate of less than 0.20% is shown by an evaluation criterion that the hygroscopicity is small: (+)) |
| COc1cccc2c1C(=O)c1c(O)c3c(c(O)c1C2=O)C[C@@](O)(C(=O)CO)C[C@@H]3O[C@H]1C[C@H](N)[C@H](O)[C@H](C)O1 [Example 50, doxorubicin hydrochloride] | + (a weight-increasing rate of less than 0.20% is shown by an evaluation criterion that the hygroscopicity is small: (+)) |
| COc1cccc2c1C(=O)c1c(O)c3c(c(O)c1C2=O)C[C@@](O)(C(=O)CO)C[C@@H]3O[C@H]1C[C@H](N)[C@H](O)[C@H](C)O1 [Example 52, doxorubicin hydrochloride] | + (a weight-increasing rate of less than 0.20% is shown by an evaluation criterion that the hygroscopicity is small: (+)) |
| COc1cccc2c1C(=O)c1c(O)c3c(c(O)c1C2=O)C[C@@](O)(C(=O)CO)C[C@@H]3O[C@H]1C[C@H](N)[C@H](O)[C@H](C)O1 [Example 53, doxorubicin hydrochloride] | + (a weight-increasing rate of less than 0.20% is shown by an evaluation criterion that the hygroscopicity is small: (+)) |
| COc1cccc2c1C(=O)c1c(O)c3c(c(O)c1C2=O)C[C@@](O)(C(=O)CO)C[C@@H]3O[C@H]1C[C@H](N)[C@H](O)[C@H](C)O1 [Example 54, doxorubicin hydrochloride] | + (a weight-increasing rate of less than 0.20% is shown by an evaluation criterion that the hygroscopicity is small: (+)) |
